Data taken from ChEMBL document CHEMBL1144644, “Synthesis and biological evaluation of 12 allenic aromatic ethers” (Bioorg Med Chem Lett, 2007).

Experiments:
KB = assay: Antitumor activity against KB cells by MTT assay; assay type: functional, cell-based; conditions: Homo sapiens
[1] = Antitumor activity against KBv200 cells by MTT assay; assay type: functional, cell-based; conditions: Homo sapiens

SMILES	IC50 (KB)	IC50 [1]
C=C=CCBr	> 200 µM	> 200 µM
C=C=CCOC(=O)[C@]1(O)CC(OC(=O)/C=C/c2ccc(OCC=C=C)c(O)c2)[C@@H](O)[C@@H](O)C1 (stereo partly drawn)	53.1 µM	35.7 µM
C=C=CCO	> 200 µM	> 200 µM
C=C=CCOc1ccc(COc2ccc(C(=O)OC)cc2)cc1	75.4 µM	52.9 µM
O=C(/C=C/c1ccc(O)c(O)c1)OC1C[C@@](O)(C(=O)O)C[C@H](O)[C@@H]1O (stereo partly drawn)	> 200 µM	> 200 µM
C=C=CCOc1ccc(C(=O)OC)cc1	22.5 µM	20.9 µM
C=C=CCOc1ccc(/C=C/C(=O)OC)cc1	27.6 µM	19 µM
C=C=CCOc1ccc(C(=O)O)cc1	40.6 µM	49.6 µM
C=C=CCOc1ccc(/C=C/C(=O)OC)cc1O	29.4 µM	23.4 µM
C=C=CCOc1ccc(COc2ccc(/C=C/C(=O)OC)cc2OC)cc1	34.6 µM	30.3 µM
C=C=CCOc1ccc(/C=C/C(=O)O)cc1	71.5 µM	52.4 µM
COC(=O)/C=C/c1ccc(O)c(OC)c1	> 200 µM	> 200 µM
COC(=O)C1(N)CC1	135 µM	> 200 µM
C=C=CCOc1ccc(COc2ccc(/C=C/C(=O)OC)cc2)cc1	48.8 µM	55.5 µM
COC(=O)C1(NC(=O)/C=C/c2ccc(O)cc2)CC1	> 200 µM	> 200 µM
C=C=CCOc1ccc(/C=C/C(=O)OC)cc1OC	17.4 µM	18.3 µM
C=C=CCOc1ccc(/C=C/C(=O)NC2(C(=O)OC)CC2)cc1	48.1 µM	77 µM
O=C(O)/C=C/c1ccc(O)cc1 [COUMARIC ACID]	> 200 µM	> 200 µM
COC(=O)/C=C/c1ccc(O)cc1 [METHYL P-HYDROXYCINNAMATE]	123 µM	101 µM
COC(=O)/C=C/c1ccc(O)c(O)c1 [METHYLCAFFEATE]	> 200 µM	> 200 µM
COC(=O)c1ccc(O)cc1 [METHYLPARABEN]	> 200 µM	> 200 µM
O=C(O)c1ccc(O)cc1 [PARABEN]	> 200 µM	> 200 µM
OCc1ccc(O)cc1 [PARAHYDROXYBENZYL ALCOHOL]	> 200 µM	> 200 µM
C=C=CCOc1ccc(CO)cc1 [TERRICOLLENE C]	74.5 µM	76.6 µM
